In patent US9334280B2, “Synthetic rigidin analogues as anticancer agents, salts, solvates and prodrugs thereof, and method of producing same” (New Mexico Technical Research Foundation, priority 2012, dated 2016):
Like-named read-outs stand apart in the source and are kept apart here.

Assays:
[1] = system: HeLa cervical adenocarcinoma cells; test: MTT antiproliferative assay, HeLa; assay type: cell-based; details: Homo sapiens, MTT, ± SD, read-out: GI50 in vitro Values, HeLa
Protocol: (§1) Human T-cell leukemia cell line Jurkat (ATCC TIB-152, E6-1 clone) was cultured in RPMI-1640 (Invitrogen) supplemented with 10% FBS (Invitrogen), 100 mg/L penicillin G, 100 mg/L streptomycin, 1.0 mM sodium pyruvate, 1.5 g/L sodium bicarbonate, and 4.5 g/L glucose (all from Sigma). Human cervical cancer cell line HeLa (ATCC S3) was cultured in DMEM (Invitrogen) supplemented with 10% FBS, 100 mg/L penicillin G, and 100 mg/L streptomycin. MCF-7 (human mammary carcinoma) cells were cultured in DMEM supplemented with 1.0 mM sodium pyruvate, 1% GlutaMax™-1 (Invitrogen), 100 μg/mL penicillin, 100 μg/mL streptomycin, and 10% FBS. Human uterine sarcoma MES-SA and MES-SA/Dx5 cells were cultured in RPMI-1640 medium supplemented with 10% FBS, 100 mg/L penicillin G and 100 mg/L streptomycin. All cells were incubated at 37° C. in a humidified atmosphere with 5% CO2. The other cell lines were maintained in a similar fashion as previously described.
(§2) To evaluate antiproliferative properties of the compounds of Formula I, mitochondrial dehydrogenase activities were measured using the MTT assay. The cell lines were prepared by trypsinizing and seeding […] cells per well into microplates. All compounds were reconstituted in dimethyl sulfoxide (DMSO) at a concentration of either 100 mM or 25 mM prior to treatment. The cells were grown for 24 hrs before treatment at concentrations ranging from 0.004 to 100 microM and incubated for 48 hrs in 200 microL media. 20 microL of MTT reagent in serum free medium (5 mg/mL) was added to each well and incubated further for 2 hrs. Media was removed and the resulting formazan crystals were re-solubilized in 100 microL of DMSO and the optical density (OD) was measured using a Thermomax Molecular Device plate reader at a wavelength of 490 nm. The experiments were performed in quadruplicate and repeated at least twice for each compound per cell line. Cells treated with 0.1% DMSO were used as a negative control, while phenyl arsine oxide (PAO) was used as a positive killing control.
(§3) Human cancer cell lines were obtained from the American Type Culture Collection (ATCC, Manassas, Va., USA), the European Collection of Cell Culture (ECACC, Salisbury, UK) and the Deutsche Sammlung von Mikroorganismen and Zellkulturen (DSMZ, Braunschweig, Germany). Human cervical adenocarcinoma HeLa cells were cultured in DMEM supplemented with 10% fetal bovine serum (FBS). Human mammary carcinoma MCF-7 cells were cultured in RPMI supplemented with 10% FBS. The U87 and U373 cells were cultured in DMEM culture medium (Lonza code 12-136F, Vervier, Belgium), while the SKMEL-28 and A549 cells were cultured in RPMI culture medium (Lonza; code 12-115F) supplemented with 10% heat-inactivated FBS (Lonza, FBS South America code DE14-801F). […] All cell lines were cultured in T25 flasks, maintained and grown at 37° C., 95% humidity, 5% CO2.
(§4) To evaluate antiproliferative properties of the synthesized compounds, the MTT assay was used. The cell lines were assessed by trypsinizing each cell line and seeding 4×10^3 cells per well into 96-well plates. All compounds were dissolved in DMSO at a concentration of either 100 mM or 50 mM prior to cell treatment. The cells were grown for 24 h and then treated with compounds at concentrations ranging from 0.04 to 100 μM and incubated for 48 h in 200 μL media. 20 μL of MTT reagent in serum free medium (5 mg/mL) was added to each well and incubated further for 2 h. Media was removed, and the resulting formazan crystals were re-solubilized in 200 μL of DMSO. A490 was measured using a Thermomax Molecular Device plate reader. The experiments were performed in quadruplicate and repeated at least twice for each compound per cell line. Cells treated with 0.1% DMSO were used as a control, and 1 μM phenyl arsine oxide (PAO) was used as a positive killing control.

[2] = system: A549 non-small-cell lung cancer cells; test: MTT antiproliferative assay, A549; assay type: cell-based; details: Homo sapiens
Protocol: as §2, §3, §4

U373 glioblastoma cells [3] = test: Quantitative videomicroscopy, U373; assay type: cell-based, human; details: U373, at MTT-based GI50 value
From the text: (§5) Poor prognoses of glioblastoma, melanoma and NSCLC patients are generally attributed to the drug resistant nature of these malignanciesand therefore it was encouraging that 7-deazahypoxanthines 13 and 18-23 were active against the U87 human glioblastoma and A549 NSCLC carcinoma cell lines. Since tubulin-targeting agents are generally poorly effective against cancer cells resistant to the induction of apoptosis, compound 22 was further evaluated against U373 human glioblastoma and SKMEL human melanoma cells, reported to display apoptosis resistance. […] Computer-assisted phase-contrast microscopy (quantitative videomicroscopy) was utilized to confirm cell death as the principal mechanism of action associated with this compound's in vitro growth inhibitory effects in these cell lines.
(§6) The effects of 22 on the viability of human U373 glioblastoma and SKMEL melanoma cells were characterized in vitro using computer-assisted phase contrast video microscopy, as described elsewhere.

U373 glioblastoma cells [4] = test: MTT antiproliferative assay, U373; assay type: cell-based, human; details: U373 MG
Protocol: as §2, §3
as §4, with “Cells treated with 0.1% DMSO were used as a control, and 1 μM phenyl arsine oxide (PAO) was used as a positive killing control.” left out

SKMEL melanoma cells = test: Quantitative videomicroscopy, SKMEL; assay type: cell-based, human; details: at MTT-based GI50 value
From the text: as §5, §6

[5] = system: MCF-7 mammary gland adenocarcinoma cells; test: MTT antiproliferative assay, MCF-7; assay type: cell-based; details: Homo sapiens, MCF7, MTT, ± SD, read-out: GI50 in vitro Values, MCF-7
Protocol: as §1, §2, §3, §4

U-87 glioblastoma cells = test: MTT antiproliferative assay, U-87; assay type: cell-based; details: Homo sapiens, Table 6, 48 h, ± SD, read-out: GI50 in vitro Values, U-87
Protocol: as §3, §4

SKMEL-28 melanoma cells = test: MTT antiproliferative assay, SKMEL-28; assay type: cell-based, human; details: SK-MEL-28
Protocol: as §2, §3
as §4, with “Cells treated with 0.1% DMSO were used as a control, and 1 μM phenyl arsine oxide (PAO) was used as a positive killing control.” left out

[6] = system: HeLa, MCF-7, U-87 and A549 cells; test: MTT antiproliferative activity, statements for four-cell-line panel; assay type: cell-based, human; details: MCF-7, U-87, A549, 48 h
Protocol: The antiproliferative effects of compounds 13 and 18-23 were studied in a more challenging cell line panel that, in addition to the previously utilized HeLa and MCF-7, contained in vitro models for cancers known to be associated with poor prognoses, such as the U-87 human glioblastoma and A549 human non-small-cell lung (NSCLC) carcinoma.
as §4

[7] = system: UM-SCC22A head and neck cancer cells; test: MTT antiproliferative assay, UM-SCC22A; assay type: cell-based; details: Table 1A, 48 h, read-out: Concentration required to reduce the viability of cells by 50%, UM-SCC22A
Protocol: as §2

[8] = system: UM-SCC22B head and neck metastases cells; test: MTT antiproliferative assay, UM-SCC22B; assay type: cell-based; details: Homo sapiens, UMSCC22B, Table 1A, 48 h, read-out: Concentration required to reduce the viability of cells by 50%, UM-SCC22B
Protocol: as §2

[9] = system: UM-SCC10A head and neck cancer cells; test: MTT antiproliferative assay, UM-SCC10A; assay type: cell-based; details: UMSCC-10A, Table 1A, 48 h, read-out: Concentration required to reduce the viability of cells by 50%, UM-SCC10A
Protocol: as §2

B16F10 melanoma cells = test: MTT antiproliferative assay, B16F10; assay type: cell-based; details: Mus musculus, B16-F10, Table 2, 48 h, read-out: GI50 in vitro values, B16F10
Protocol: as §2

[10] = system: UM-SCC10B head and neck metastases cells; test: MTT antiproliferative assay, UM-SCC10B; assay type: cell-based; details: Table 1A, 48 h, read-out: Concentration required to reduce the viability of cells by 50%, UM-SCC10B
Protocol: as §2

[11] = system: Hs683 anaplastic oligodendroglioma cells; test: MTT antiproliferative assay, Hs683; assay type: cell-based; details: Homo sapiens, Hs 683, Table 2, 48 h, read-out: GI50 in vitro values, Hs683
Protocol: as §2

[12] = system: MES-SA/Dx5 uterine sarcoma cells (overexpress p-gp); test: MTT antiproliferative assay, MDR MES-SA/Dx5; assay type: cell-based, human
Protocol: as §1, §2
The cells of such tumors are referred to as multidrug resistant (MDR). Thus, we assessed the compounds of Formula I for antiproliferative activity in an MDR cancer cell line. This was done using the uterine sarcoma cells, MES-SA/Dx5, which overexpress p-gp. The parental drug-responsive MES-SA cell line was used as control.

SW620 colon cancer cells = test: MTT antiproliferative assay, SW620; assay type: cell-based; details: Homo sapiens, SW-620, Table 1A, 48 h, read-out: Concentration required to reduce the viability of cells by 50%, SW620
Protocol: as §2

[13] = system: MES-SA uterine sarcoma cells; test: MTT antiproliferative assay, MES-SA; assay type: cell-based; details: Homo sapiens, Table 3, parental drug-responsive cell line, read-out: GI50 in vitro Values, MES-SA
Protocol: as §1, with “The other cell lines were maintained in a similar fashion as previously described.” left out
To evaluate antiproliferative properties of the compounds of Formula I, mitochondrial dehydrogenase activities were measured using the MTT assay. […] Media was removed and the resulting formazan crystals were re-solubilized in 100 microL of DMSO and the optical density (OD) was measured using a Thermomax Molecular Device plate reader at a wavelength of 490 nm. […]
The cells of such tumors are referred to as multidrug resistant (MDR). Thus, we assessed the compounds of Formula I for antiproliferative activity in an MDR cancer cell line. […]

SW480 colon cancer cells = test: MTT antiproliferative assay, SW480; assay type: cell-based; details: Homo sapiens, Table 1A, 48 h, read-out: Concentration required to reduce the viability of cells by 50%, SW480
Protocol: as §2

HCT8 colon cancer cells = test: MTT antiproliferative assay, HCT8; assay type: cell-based; details: Homo sapiens, HCT-8, Table 1A, 48 h, read-out: Concentration required to reduce the viability of cells by 50%, HCT8
Protocol: as §2

GEO colon cancer cells = test: MTT antiproliferative assay, GEO; assay type: cell-based; details: Table 1A, 48 h, read-out: Concentration required to reduce the viability of cells by 50%, GEO
Protocol: as §2

[14] = Table 6, 48 h, ± SD, read-out: GI50 in vitro Values, A549
[15] = Table 2, 48 h, read-out: GI50 in vitro values, A549
[16] = Homo sapiens, Table 2, 48 h, MTT, read-out: GI50 in vitro values, U373
[17] = Homo sapiens, Table 2, 48 h, MTT, read-out: GI50 in vitro values, SKMEL-28

GI50 ([1]; Table 6, 48 h) [nM]	GI50 [2, 14] [nM]	GI50 ([5]; Table 6, 48 h) [nM]	GI50 (U-87 glioblastoma cells) [nM]	GI50 ([1]; Table 1, 48 h treatment) [nM]	GI50 [2, 15] [nM]	GI50 (U373 glioblastoma cells [4]; [16]) [nM]	GI50 (B16F10 melanoma cells) [nM]	GI50 ([5]; Table 1, 48 h treatment) [nM]	GI50 (SKMEL-28 melanoma cells; [17]) [nM]	GI50 [11] [nM]	Compound	other results
490 ± 50	1100 ± 400	610 ± 10	2400 ± 600	–	–	–	–	–	–	–	Cc1nc(=O)c2c(-c3cncc(Br)c3)c(C(=O)c3ccccc3)[nH]c2[nH]1 [Compound 22, 6-Benzoyl-5-(5-bromopyridin-3-yl)-2-methyl-1H-pyrrolo[2,3-d]pyrimidin-4(7H)-one]	mechanism of growth inhibition by videomicroscopy (in words) (U373 glioblastoma cells [3]): inhibited cancer cell proliferation by inducing cell death; GI50 (U373 glioblastoma cells [4]; apoptosis-resistant U373 human glioblastoma, read-out: MTT-based GI50 value, U373): 300 nM; mechanism of growth inhibition by videomicroscopy (in words) (SKMEL melanoma cells): inhibited cancer cell proliferation by inducing cell death; GI50 (SKMEL-28 melanoma cells; apoptosis-resistant SKMEL human melanoma, read-out: MTT-based GI50 value, SKMEL): 300 nM
3100 ± 100	12000 ± 1400	4700 ± 800	9230 ± 2130	–	–	–	–	–	–	–	Cc1nc(=O)c2c(-c3cccnc3)c(C(=O)c3ccccc3)[nH]c2[nH]1 [Compound 21, 6-Benzoyl-2-methyl-5-(pyridin-3-yl)-1H-pyrrolo[2,3-d]pyrimidin-4(7H)-one]	antiproliferative potencies (in words) [6]: single-digit micromolar potencies
–	–	–	–	80 ± 25	20	30	40	87 ± 20	20	20	O=C(c1ccccc1)c1[nH]c2[nH]cnc(=O)c2c1-c1cncc(Br)c1 [Rig9, 6-Benzoyl-5-(5-bromopyridin-3-yl)-1H-pyrrolo[2,3-d]pyrimidin-4(7H)-one]	IC50 [7]: 120 nM; IC50 [8]: 20 nM; IC50 [9]: 90 nM; IC50 [10]: 130 nM
–	–	–	–	35 ± 7	20	< 10	10	40 ± 24	< 10	10	O=C(c1ccccc1)c1[nH]c2[nH]cnc(=O)c2c1-c1ccccc1 [Rig35, 6-Benzoyl-5-phenyl-1H-pyrrolo[2,3-d]pyrimidin-4(7H)-one]	GI50 ([12]; Homo sapiens, MES-SA/Dx5, Table 3, MDR cell line, read-out: GI50 in vitro Values, MES-SA/Dx5): 70 ± 4 nM; variation in the sensitivities of the parental and MDR cell lines ([12]; MES-SA/Dx5 vs MES-SA, in words): only a small variation; IC50 (SW620 colon cancer cells): < 1 nM; GI50 [13]: 30 ± 4 nM; IC50 (SW480 colon cancer cells): < 1 nM; IC50 (HCT8 colon cancer cells): < 1 nM; IC50 (GEO colon cancer cells): 8 nM
